From patent US20240384268A1, “Oligonucleotides” (Hudson Institute of Medical Research, priority 2021, published 2024)
In the oligonucleotide strings, read from the 5' end, every base follows the letter of its sugar. An asterisk marks phosphorothioate; unmarked linkages are phosphodiester. Other units and linkages are bracketed, terminal groups are in braces. A string of capitals states the bases alone. m = 2'-O-methyl

Target: T1, TLR8 (Homo sapiens, UniProt Q9NR97)
T1 sequence (Q9NR97 27-1041): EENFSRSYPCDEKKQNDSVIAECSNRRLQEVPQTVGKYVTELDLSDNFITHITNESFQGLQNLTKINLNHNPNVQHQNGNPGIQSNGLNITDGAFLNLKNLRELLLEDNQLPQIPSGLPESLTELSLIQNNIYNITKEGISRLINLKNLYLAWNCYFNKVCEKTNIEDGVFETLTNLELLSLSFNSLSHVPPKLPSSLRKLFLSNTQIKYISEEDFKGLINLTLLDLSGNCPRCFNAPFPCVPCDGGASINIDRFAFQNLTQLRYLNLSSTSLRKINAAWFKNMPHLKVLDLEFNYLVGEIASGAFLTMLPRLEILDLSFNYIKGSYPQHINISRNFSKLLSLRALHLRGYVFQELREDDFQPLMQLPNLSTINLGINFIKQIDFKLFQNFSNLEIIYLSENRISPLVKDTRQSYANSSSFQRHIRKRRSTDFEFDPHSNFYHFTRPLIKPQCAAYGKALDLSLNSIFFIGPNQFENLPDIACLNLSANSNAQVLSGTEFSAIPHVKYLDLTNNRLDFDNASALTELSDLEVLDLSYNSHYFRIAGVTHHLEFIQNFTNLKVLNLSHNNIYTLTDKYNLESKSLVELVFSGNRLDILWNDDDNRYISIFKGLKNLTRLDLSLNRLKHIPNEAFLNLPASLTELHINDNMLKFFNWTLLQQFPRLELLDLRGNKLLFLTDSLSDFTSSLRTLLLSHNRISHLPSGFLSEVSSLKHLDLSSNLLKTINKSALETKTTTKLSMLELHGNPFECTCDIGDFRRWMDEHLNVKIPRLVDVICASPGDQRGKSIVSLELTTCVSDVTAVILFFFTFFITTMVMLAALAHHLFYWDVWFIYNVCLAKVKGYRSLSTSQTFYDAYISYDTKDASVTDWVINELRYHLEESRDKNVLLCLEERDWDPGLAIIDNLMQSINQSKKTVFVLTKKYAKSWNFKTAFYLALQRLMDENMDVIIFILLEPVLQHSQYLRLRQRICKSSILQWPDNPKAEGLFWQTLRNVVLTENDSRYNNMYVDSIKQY
Assay: HEK-TLR8 NF-κB-luciferase reporter, R848 or Motolimod stimulation (potentiation or inhibition)
Assay type: cell-based
Design: expressed in transfected cells; host or cells: 293XLhTLR8 (HEK293)
Conditions: HEK-TLR8; for TLR8 HEK 5 uM: 3mer 2'OMe ASO at 5 uM, value relative to Ligand only = 1.000, NT = 0.000; for effect of 3-mer 2′OMe PS oligos on TLR8 sensing in HEK-TLR8 (in words): 5 μM naked 3-mer, Motolimod

Row | Substance | TLR8 HEK 5 uM | effect of 3-mer 2′OMe PS oligos on TLR8 sensing in HEK-TLR8 (in words)
1 | mGmUmG (mG*mU*mG) [GUG, 3-mer 2′OMe PS oligo] | 0.882 | robustly inhibitory
2 | mGmUmU (mG*mU*mU) [GUU, 3-mer 2′OMe PS oligo] | 0.668 | robustly inhibitory
3 | mUmCmA (mU*mC*mA) [UCA, 3-mer 2′OMe PS oligo] | 1.115 | –
4 | mUmCmG (antisense mU*mC*mG) [660-3b] | 2.839 | potentiated the sensing of R848
5 | mUmGmA (mU*mG*mA) [UGA, 3-mer 2′OMe PS oligo] | 1.331 | –
6 | mUmGmG (mU*mG*mG) [UGG, 3-mer 2′OMe PS oligo] | 1.860 | potentiated the sensing of R848
